US5037830A, “Novel thiouracyl derivatives, pharmaceutical compositions containing them and process for preparing same” (Richter Gedeon Vegyeszeti Gyar RT, priority 1989, dated 1991)
Where two headings read alike, the source gives them in different places.

Columns and labels:
[1] = tested on: reserpine-induced gastric ulcer; assay: Inhibition of the reserpine-induced gastric ulcer; type: in vivo, female OFA rats; conditions: Rattus norvegicus, po, 18 h, p.o., reserpine 5 mg/kg s.c.
Protocol: After being starved for 24 hours, female OFA rats were orally treated with the compounds to be tested and then subcutaneously (s.c.) with 5 mg/kg of reserpine after 1 hour. After 18 hours the animals were killed and their stomach were examined under microscope. The evaluation was performed as described under the preceding paragraph 1.

[2] = tested on: spontaneous gastric acid secretion; assay: Gastric acid secretion-inhibiting effect according to Shay's method; type: in vivo, female OFA rats; conditions: for Gastric acid, change / Gastric juice, change: vs control; for Gastric acid, treated: titration with 0.1N NaOH
Protocol: After being starved for 24 hours, female OFA rats weighing 130 to 160 g were orally treated with the compounds to be tested. (15 animals were used for each dose.) One hour later laparotomy and pylorus ligature were carried out under ether anaesthesia according to Shay [Gastroenterology 5, 43 (1945)]. After 5 hours the animals were killed by an overdose of ether, their stomaches were excised and the volume and acid content of the gastric juice were determined. The acid was measured by titration with 0.1N NaOH, by using Topfer's indicator.

[3] = tested on: gastric ulcer induced by Aspirin plus stress; assay: Inhibition of the gastric ulcer induced by Aspirin plus stress; type: in vivo, female RG-Wistar rats; conditions: Rattus norvegicus, po; Aspirin plus stress
Protocol: After being starved for 24 hours, female RG-Wistar rats weighing 120 to 150 g were orally treated with the compound to be tested and then orally with Aspirin. The animals were sensitized by the aspirin pretreatment and a strong ulceration was induced in the glandular part of stomach of the animals by a subsequent stress (fastening, ducking in water of 22° C. temperature). The ulceration was evaluated as score values from 0 to 2.

[4] = tested on: gastric ulcer after pylorus ligature; assay: Gastric ulcer-inhibiting effect in rats operated according to Shay's method; type: in vivo, female OFA rats; conditions: Rattus norvegicus, po, 18 h, p.o.
Protocol: Female OFA rats starved for 24 hours weighing 150 to 160 g were used. (The animals were allowed to drink water ad libitum). The animals were orally treated with the substance to be tested and after 1 hour laparotomy and pylorus ligature according to Shay [Gastroenterology 5, 43 (1945)] were performed under ether anaesthesia. After 18 hours the number and size of ulcers formed on the membranaceous part of the stomach were examined under microscope. The evaluation was made in relation to the control group and the ED50 values were determined. The sizes of the ulcers were expressed as score values from 0.5 to 32.

[5] = tested on: pentagastrin-induced gastric acid secretion; assay: Inhibition of the pentagastrin-induced gastric acid secretion in rats; type: in vivo, male OFA rats; conditions: for Gastric acid, change / Gastric juice, change: vs control; for Gastric juice, treated: pentagastrin 0.05 mg/kg/hour;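 for Gastric acid, treated: dosed 30 min before a 5 hour experiment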
Protocol: (§1) After being starved for 24 hours, male OFA rats weighing 250 to 320 g were anaestethized by 40% urethane (0.5 ml/100 g), then the trachea and jugular vein were cannulated (10 animals were used for each dose). A glass cannula was inserted to the stomach from the direction of the pylorus. The stomach was washed with lukewarm water and then purified by air blown through. The gastric acid secretion was induced by an infusion of histamine (5 mg/kg/hour), or pentagastrin (0.05 mg/kg/hour) or carbachol (0.01 mg/kg/hour), respectively. […]

[6] = tested on: histamine-induced gastric acid secretion; assay: Inhibition of the histamine-induced gastric acid secretion in rats; type: in vivo, male OFA rats; conditions: for Gastric acid, change / Gastric juice, change: vs control; for Gastric juice, treated: histamine 5 mg/kg/hour;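 for Gastric acid, treated: dosed 30 min before a 5 hour experiment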
Protocol: as §1

Acute toxicity, rat = conditions: in vivo
Protocol: (§2) These investigations were carried out in OFI mice and OFA rats after starving for 24 hours. Ten animals were used for each dose. The number of doses was 3 or 4.

[7] = tested on: carbachol-induced gastric acid secretion; assay: Inhibition of the carbachol-induced gastric acid secretion in rats; type: in vivo, male OFA rats; conditions: for Gastric acid, change / Gastric juice, change: vs control; for Gastric juice, treated: carbachol 0.01 mg/kg/hour;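 for Gastric acid, treated: dosed 30 min before a 5 hour experiment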
Protocol: as §1

Acute toxicity, mouse = conditions: in vivo
Protocol: as §2

[8] = tested on: indomethacin-induced gastric ulcer; assay: Inhibition of the indomethacin-induced gastric ulcer; type: in vivo, female RG-Wistar rats; conditions: Rattus norvegicus, po; indomethacin 20 mg/kg orally
Protocol: After being starved for 24 hours, female RG-Wistar rats were orally treated with the compounds to be tested and then orally with 20 mg/kg of indomethacin after 30 minutes. The evaluation was carried out in relation to the control group and the ED50 values were determined.

[9] = read-out: ED50 related to the number of ulcers
[10] = read-out: ED50 related to the occurrance of ulcers
[11] = read-out: ED50 related to the severity of ulcers

`CN(C)c1ccccc1C[S+]([O-])c1nc2ccccc2[nH]1` (centres unmarked) [NC-1300, 2-[(2-dimethylaminobenzyl)sulfinyl]-1H-benzimidazole, reference compound] showed an ED50 [1, 9] of 8 mg/kg, an ED50 [1, 10] of 18 mg/kg and an ED50 [1, 11] of 6 mg/kg. The “Gastric juice, treated” value ([2]; 10 mg/kg p.o.) was 6.11 mL, the “Gastric acid, change” value ([2]; 10 mg/kg p.o.) was -34.0% and the “Gastric juice, change” value ([2]; 10 mg/kg p.o.) was -16.3%. The “Gastric acid, treated” value ([2]; 10 mg/kg p.o.) was 2.74 mL, the “Gastric juice, treated” value ([2]; 20 mg/kg p.o.) was 4.63 mL and the “Gastric acid, change” value ([2]; 20 mg/kg p.o.) was -58.2%. The “Gastric juice, change” value ([2]; 20 mg/kg p.o.) was -17.5%, the “Gastric acid, treated” value ([2]; 20 mg/kg p.o.) was 1.36 mL and the “Gastric juice, treated” value ([2]; 50 mg/kg p.o.) was 4.50 mL. For the same compound, the “Gastric acid, change” value ([2]; 50 mg/kg p.o.) was -88.1%, the “Gastric juice, change” value ([2]; 50 mg/kg p.o.) was -23.7% and the “Gastric acid, treated” value ([2]; 50 mg/kg p.o.) was 0.41 mL. The ED50 ([2]; po, gastric acid, Shay rat) was 16 mg/kg, the ED50 [3] was 11.9 mg/kg and the ED50 [4, 9] was 7.4 mg/kg. For the same compound, the ED50 [4, 10] was 14.5 mg/kg, the ED50 [4, 11] was 5.7 mg/kg and the “Gastric acid, treated” value ([5]; 5 mg/kg i.p.) was 1.25 mL. The “Gastric acid, change” value ([5]; 5 mg/kg i.p.) was -23%, the “Gastric juice, change” value ([5]; 5 mg/kg i.p.) was -26% and the “Gastric juice, treated” value ([5]; 5 mg/kg i.p.) was 0.92 mL. The “Gastric acid, treated” value ([5]; 10 mg/kg i.p.) was 0.47 mL, the “Gastric acid, change” value ([5]; 10 mg/kg i.p.) was -74% and the “Gastric juice, change” value ([5]; 10 mg/kg i.p.) was -70%. The “Gastric juice, treated” value ([5]; 10 mg/kg i.p.) was 0.35 mL, the “Gastric acid, treated” value ([5]; 20 mg/kg i.p.) was 0.32 mL and the “Gastric acid, change” value ([5]; 20 mg/kg i.p.) was -82%. For the same compound, the “Gastric juice, change” value ([5]; 20 mg/kg i.p.) was -77%, the “Gastric juice, treated” value ([5]; 20 mg/kg i.p.) was 0.27 mL and the ED50 ([5]; Rattus norvegicus, ip, pentagastrin-induced, dose column i.p.) was 7.9 mg/kg. The “Gastric acid, treated” value ([6]; 5 mg/kg i.p.) was 1.97 mL, the “Gastric acid, change” value ([6]; 5 mg/kg i.p.) was -43% and the “Gastric juice, change” value ([6]; 5 mg/kg i.p.) was -45%. The “Gastric juice, treated” value ([6]; 5 mg/kg i.p.) was 1.27 mL, the “Gastric acid, treated” value ([6]; 10 mg/kg i.p.) was 0.78 mL and the “Gastric acid, change” value ([6]; 10 mg/kg i.p.) was -77%. For the same compound, the “Gastric juice, change” value ([6]; 10 mg/kg i.p.) was -79%, the “Gastric juice, treated” value ([6]; 10 mg/kg i.p.) was 0.49 mL and the “Gastric acid, treated” value ([6]; 20 mg/kg i.p.) was 0.61 mL. For the same compound, the “Gastric acid, change” value ([6]; 20 mg/kg i.p.) was -82%, the “Gastric juice, change” value ([6]; 20 mg/kg i.p.) was -78% and the “Gastric juice, treated” value ([6]; 20 mg/kg i.p.) was 0.50 mL. The ED50 ([6]; Rattus norvegicus, ip, histamine-induced, dose column i.p.) was 6 mg/kg, the LD50 (Acute toxicity, rat; ip, female rat) was 245 mg/kg and the LD50 (Acute toxicity, rat; ip, male rat) was 270 mg/kg. The LD50 (Acute toxicity, rat; po, female rat, precision restricted by solubility) was 1400 mg/kg, the LD50 (Acute toxicity, rat; po, male rat, precision restricted by solubility) was 1300 mg/kg and the “Gastric acid, treated” value ([7]; 6.25 mg/kg i.p.) was 1.89 mL. For the same compound, the “Gastric acid, change” value ([7]; 6.25 mg/kg i.p.) was -31%, the “Gastric juice, change” value ([7]; 6.25 mg/kg i.p.) was -25% and the “Gastric juice, treated” value ([7]; 6.25 mg/kg i.p.) was 1.55 mL. The “Gastric acid, treated” value ([7]; 9 mg/kg i.p.) was 1.86 mL, the “Gastric acid, change” value ([7]; 9 mg/kg i.p.) was -32% and the “Gastric juice, change” value ([7]; 9 mg/kg i.p.) was -24%. The “Gastric juice, treated” value ([7]; 9 mg/kg i.p.) was 1.57 mL, the “Gastric acid, treated” value ([7]; 12.5 mg/kg i.p.) was 0.72 mL and the “Gastric acid, change” value ([7]; 12.5 mg/kg i.p.) was -74%. For the same compound, the “Gastric juice, change” value ([7]; 12.5 mg/kg i.p.) was -58%, the “Gastric juice, treated” value ([7]; 12.5 mg/kg i.p.) was 0.87 mL and the ED50 ([7]; Rattus norvegicus, ip, carbachol-induced, dose column i.p.) was 9.6 mg/kg. The LD50 (Acute toxicity, mouse; ip, female mouse) was 415 mg/kg, the LD50 (Acute toxicity, mouse; ip, male mouse) was 410 mg/kg and the LD50 (Acute toxicity, mouse; po, female mouse, precision restricted by solubility) was greater than 1000 mg/kg. For the same compound, the LD50 (Acute toxicity, mouse; po, male mouse, precision restricted by solubility) was greater than 1000 mg/kg and the ED50 [8] was 8.4 mg/kg.
